Experimental data as given in patent publication US20160237071A1, “T-TYPE CALCIUM CHANNEL INHIBITOR” (NISSAN CHEMICAL INDUSTRIES, LTD., priority 2013, published 2016).

Molecular target: T1, Human T-type calcium channel (Cav 3.2) (Homo sapiens, UniProt O95180)
T1 construct: Edward Perez-Reyes, University of Virginia, USA; host or cells: HEK293
Experiment: Calcium influx inhibition assay
Format: cell-based
Details: T-type calcium channel inhibition concentration; Cav 3.2 expressing HEK293 cells, FLIPR Calcium 4 fluorescence; read-out: C50
Method: Human T-type calcium channel (Cav 3.2) expressing HEK293 cells were obtained from Prof. Edward Perez-Reyes, University of Virginia, USA. The calcium-sensitive fluorescent dye used was FLIPR Calcium 4 Assay Kit (Molecular Devices).
To a black 96-well plate with a clear bottom coated with type I collagen, the human T-type calcium channel (Cav 3.2) expressing HEK293 cells were seeded and cultured overnight, and the culture medium was removed. A solution of the calcium-sensitive fluorescent dye was added, and the whole was incubated at 37° C. in an atmosphere of 5% carbon dioxide for 30 minutes. To the plate, a diluted solution of a compound was added, and the whole was further incubated at 37° C. in an atmosphere of 5% carbon dioxide for 30 minutes. While fluorescence was continuously analyzed from the bottom with a FlexStation 3 (Molecular Devices), a calcium solution was added. […] From the rise in the fluorescence from the base line, the inhibition percentage was calculated. The logarithms of compound concentrations were plotted with respect to the inhibition activities to obtain an IC50 value (50% inhibition concentration).

T1 sequence (O95180 whole entry): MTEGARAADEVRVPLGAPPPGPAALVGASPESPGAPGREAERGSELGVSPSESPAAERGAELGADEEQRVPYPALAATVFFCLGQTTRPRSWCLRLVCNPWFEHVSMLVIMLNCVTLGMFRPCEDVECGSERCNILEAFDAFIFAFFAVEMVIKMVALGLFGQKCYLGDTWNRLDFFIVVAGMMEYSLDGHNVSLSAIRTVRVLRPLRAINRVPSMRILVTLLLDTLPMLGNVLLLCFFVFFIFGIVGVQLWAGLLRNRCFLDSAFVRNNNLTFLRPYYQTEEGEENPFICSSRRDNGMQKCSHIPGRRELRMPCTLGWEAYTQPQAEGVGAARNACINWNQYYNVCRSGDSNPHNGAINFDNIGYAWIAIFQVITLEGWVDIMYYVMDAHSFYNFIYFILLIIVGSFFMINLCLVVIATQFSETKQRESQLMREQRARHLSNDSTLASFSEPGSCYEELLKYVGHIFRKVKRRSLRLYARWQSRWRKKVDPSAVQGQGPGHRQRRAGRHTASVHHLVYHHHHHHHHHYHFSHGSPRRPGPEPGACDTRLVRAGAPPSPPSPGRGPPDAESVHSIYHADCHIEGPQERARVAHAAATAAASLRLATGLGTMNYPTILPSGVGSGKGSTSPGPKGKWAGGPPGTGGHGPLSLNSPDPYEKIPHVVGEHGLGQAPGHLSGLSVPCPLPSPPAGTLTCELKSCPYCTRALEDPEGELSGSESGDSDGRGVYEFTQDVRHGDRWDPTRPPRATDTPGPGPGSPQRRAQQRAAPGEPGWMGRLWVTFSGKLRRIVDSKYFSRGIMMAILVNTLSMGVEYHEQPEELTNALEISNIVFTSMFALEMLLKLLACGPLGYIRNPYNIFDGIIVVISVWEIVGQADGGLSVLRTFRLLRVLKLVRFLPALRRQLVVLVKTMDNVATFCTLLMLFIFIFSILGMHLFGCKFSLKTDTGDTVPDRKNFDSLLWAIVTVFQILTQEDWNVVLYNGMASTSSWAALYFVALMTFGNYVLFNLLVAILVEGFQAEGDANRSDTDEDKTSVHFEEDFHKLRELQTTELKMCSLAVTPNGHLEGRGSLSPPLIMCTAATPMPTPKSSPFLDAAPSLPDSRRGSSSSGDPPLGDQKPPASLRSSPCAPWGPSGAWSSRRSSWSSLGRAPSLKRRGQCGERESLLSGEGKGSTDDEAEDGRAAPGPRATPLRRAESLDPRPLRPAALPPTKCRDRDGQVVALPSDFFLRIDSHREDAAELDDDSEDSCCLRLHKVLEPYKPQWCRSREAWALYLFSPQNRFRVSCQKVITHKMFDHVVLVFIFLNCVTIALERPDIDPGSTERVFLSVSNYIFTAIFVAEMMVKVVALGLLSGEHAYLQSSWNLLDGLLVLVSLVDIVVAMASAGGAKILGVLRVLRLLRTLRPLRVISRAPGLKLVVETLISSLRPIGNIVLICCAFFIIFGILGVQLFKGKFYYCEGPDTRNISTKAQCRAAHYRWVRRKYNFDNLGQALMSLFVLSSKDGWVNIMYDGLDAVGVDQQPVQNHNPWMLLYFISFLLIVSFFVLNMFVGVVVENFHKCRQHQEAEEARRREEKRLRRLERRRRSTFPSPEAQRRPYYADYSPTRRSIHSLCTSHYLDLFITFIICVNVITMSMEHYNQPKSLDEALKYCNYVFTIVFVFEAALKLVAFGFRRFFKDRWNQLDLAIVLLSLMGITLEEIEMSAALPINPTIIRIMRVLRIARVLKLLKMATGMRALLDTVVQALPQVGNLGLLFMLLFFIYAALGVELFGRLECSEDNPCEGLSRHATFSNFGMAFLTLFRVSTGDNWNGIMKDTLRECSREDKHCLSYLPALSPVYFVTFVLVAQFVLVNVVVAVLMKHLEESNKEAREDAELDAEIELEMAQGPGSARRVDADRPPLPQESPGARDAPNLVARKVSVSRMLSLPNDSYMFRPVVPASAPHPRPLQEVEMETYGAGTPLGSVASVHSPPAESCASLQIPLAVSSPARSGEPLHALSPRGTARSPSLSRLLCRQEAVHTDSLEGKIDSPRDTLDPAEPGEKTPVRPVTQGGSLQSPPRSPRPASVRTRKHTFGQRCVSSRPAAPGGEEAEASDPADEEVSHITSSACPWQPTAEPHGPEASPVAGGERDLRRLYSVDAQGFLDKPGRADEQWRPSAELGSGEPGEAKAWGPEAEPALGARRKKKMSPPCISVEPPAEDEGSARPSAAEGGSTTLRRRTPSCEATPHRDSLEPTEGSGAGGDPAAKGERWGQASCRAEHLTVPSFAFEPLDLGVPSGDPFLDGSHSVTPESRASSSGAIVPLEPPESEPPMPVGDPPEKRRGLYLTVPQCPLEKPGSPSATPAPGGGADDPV

| IC50 [nM] | Compound |
| --- | --- |
| 63 | COc1cccc2c1C(O)CN(c1nc(C)n(Cc3ccc(C(F)(F)F)s3)c(=O)n1)C2 (stereo not drawn) [8a] |
| 790 | COc1ccc2c(c1)CN(c1nc(C)n(Cc3ccc(C(F)(F)F)s3)c(=O)n1)CC2O (stereo not drawn) [8b] |
| 4.9 | COc1ccc2c(c1)[C@@H](O)CN(c1nc(C)n(Cc3ccc(C(F)(F)F)s3)c(=O)n1)C2 [9a] |
| 130 | COc1ccc2c(c1)[C@H](O)CN(c1nc(C)n(Cc3ccc(C(F)(F)F)s3)c(=O)n1)C2 [9b] |
| 62 | O=c1nc(N2CCc3cc(C(F)(F)F)ccc3C2)ncn1Cc1ccc(C(F)(F)F)s1 [compound 1] |
| 540 | COc1cc2c(cc1OC)CN(c1ncn(Cc3ccc(C(F)(F)F)s3)c(=O)n1)CC2 [compound 2] |
| 95 | COc1ccc2c(c1)C(O)CN(c1ncn(Cc3ccc(C(F)(F)F)s3)c(=O)n1)C2 (stereo not drawn) [compound 3] |
| 20 | COc1ccc2c(c1)C(O)CN(c1nc(C)n(Cc3ccc(C(F)(F)F)s3)c(=O)n1)C2 (stereo not drawn) [compound 4] |
| 320 | Cc1nc(N2CCc3cc(OCC(F)(F)F)ccc3C2)nc(=O)n1Cc1cnc(C(F)(F)F)s1 [compound 5] |
| 1800 | N#Cc1ccc2c(c1)CN(c1ncn(Cc3ccc(C(F)(F)F)s3)c(=O)n1)CC2 [compound 6] |
| 320 | COc1ccc2c(c1)C(O)CN(c1nc(C)n(Cc3ccc(OS(=O)(=O)C(F)(F)F)nc3)c(=O)n1)C2 (stereo not drawn) [compound 10] |
| 34 | O=c1nc(N2CCc3cc(OC(F)F)ccc3C2)ncn1Cc1ccc(C(F)(F)F)s1 [compound 11] |
| 54 | O=c1nc(N2CCc3cc(OS(=O)(=O)C(F)(F)F)ccc3C2)ncn1Cc1ccc(C(F)(F)F)s1 [compound 12] |
| 55 | O=c1nc(N2CCc3cc(OCC(F)(F)F)ccc3C2)ncn1Cc1ccc(C(F)(F)F)s1 [compound 13] |
| 45 | Cc1nc(N2CCc3cc(OC(F)F)ccc3C2)nc(=O)n1Cc1ccc(C(F)(F)F)s1 [compound 14] |
| 10 | Cc1nc(N2Cc3ccc(OCC(F)(F)F)cc3C(O)C2)nc(=O)n1Cc1ccc(C(F)(F)F)s1 (stereo not drawn) [compound 15] |
| 18 | CCOc1ccc2c(c1)C(O)CN(c1nc(C)n(Cc3ccc(C(F)(F)F)s3)c(=O)n1)C2 (stereo not drawn) [compound 18] |
| 260 | Cc1cc2c(s1)CCN(c1nc(C)n(Cc3ccc(C(F)(F)F)s3)c(=O)n1)C2 [compound 19] |
| 400 | Cc1nc(N2CCc3sc(CO)cc3C2)nc(=O)n1Cc1ccc(C(F)(F)F)s1 [compound 20] |
| 360 | COc1nc2c(s1)CN(c1nc(C)n(Cc3ccc(C(F)(F)F)s3)c(=O)n1)CC2 [compound 21] |
| 310 | COc1ccc2c(n1)CCN(c1nc(C)n(Cc3ccc(C(F)(F)F)s3)c(=O)n1)C2 [compound 22] |
| 340 | Cc1nc(N2Cc3ccc(OCC(F)(F)F)cc3C(O)C2)nc(=O)n1Cc1cnc(C(F)(F)F)s1 (stereo not drawn) [compound 23] |
| 940 | COc1ccc2c(c1)CCN(c1nc(C)n(Cc3cnc(C(F)(F)F)s3)c(=O)n1)C2 [compound 24] |
| 450 | COc1ccc2c(c1)C(O)CN(c1nc(C)n(Cc3cnc(C(F)(F)F)s3)c(=O)n1)C2 (stereo not drawn) [compound 25] |
| 3000 | COc1ccc2c(c1)C(O)CN(c1nc(C)n(Cc3ccc(F)cc3)c(=O)n1)C2 (stereo not drawn) [compound 26] |
| 2800 | CCOC(=O)C1Cc2ccccc2CN1c1nc(C)n(Cc2ccc(C(F)(F)F)s2)c(=O)n1 (stereo not drawn) [compound 27] |
| 320 | Cc1nc(N2CCc3c(Cl)ccc(Cl)c3C2)nc(=O)n1Cc1ccc(C(F)(F)F)s1 [compound 28] |

| IC50 [nM] | Compound |
| --- | --- |
| 40 | COc1ccc2c(c1)CCN(c1nc(C)n(Cc3ccc(C(F)(F)F)s3)c(=O)n1)CC2 [compound 29] |
| 240 | Cc1nc(N2CCc3nc(C4CC4)ccc3C2)nc(=O)n1Cc1ccc(C(F)(F)F)s1 [compound 31] |
| 27 | COc1ccc2c(c1)C(N)CN(c1nc(C)n(Cc3ccc(C(F)(F)F)s3)c(=O)n1)C2 (stereo not drawn) [compound 32] |
| 750 | Cc1nc(N2CCc3ccccc32)nc(=O)n1Cc1ccc(C(F)(F)F)s1 [compound 34] |
| 51 | COc1ccc2c(c1)C(F)CN(c1nc(C)n(Cc3ccc(C(F)(F)F)s3)c(=O)n1)C2 (stereo not drawn) [compound 35] |
| 520 | COc1ccc2c(c1)C(=O)CN(c1nc(C)n(Cc3ccc(C(F)(F)F)s3)c(=O)n1)C2 [compound 36] |
| 130 | COc1ccc2c(c1)/C(=N/O)CN(c1nc(C)n(Cc3ccc(C(F)(F)F)s3)c(=O)n1)C2 [compound 37] |
| 38 | Cc1nc(N2Cc3ccc(OC(C)C)cc3C(O)C2)nc(=O)n1Cc1ccc(C(F)(F)F)s1 (stereo not drawn) [compound 38] |
| 75 | Cc1nc(N2Cc3ccc(OCC(C)C)cc3C(O)C2)nc(=O)n1Cc1ccc(C(F)(F)F)s1 (stereo not drawn) [compound 39] |
| 250 | Cc1nc(N2CCc3cc(OCC(F)(F)F)ccc3C2)nc(=O)n1Cc1ccc(C(F)(F)F)s1 [compound 40] |
| 50 | Cc1nc(N2CCc3cc(OS(=O)(=O)C(F)(F)F)ccc3C2)nc(=O)n1Cc1ccc(C(F)(F)F)s1 [compound 41] |
| 290 | Cc1nc(N2Cc3ccc(O)cc3C(O)C2)nc(=O)n1Cc1ccc(C(F)(F)F)s1 (stereo not drawn) [compound 42] |
| 320 | Cc1nc(N2CCc3ccc(C(F)(F)F)cc3C2)nc(=O)n1Cc1ccc(C(F)(F)F)s1 [compound 43] |
| 320 | Cc1nc(N2CCc3ccccc3C2)nc(=O)n1Cc1ccc(C(F)(F)F)s1 [compound 44] |
| 320 | Cc1nc(N2Cc3ccc(OCC(N)=O)cc3C(O)C2)nc(=O)n1Cc1ccc(C(F)(F)F)s1 (stereo not drawn) [compound 45] |
| 360 | Cc1nc(N2Cc3ccc(OCC(F)(F)F)cc3C2)nc(=O)n1Cc1ccc(C(F)(F)F)s1 [compound 46] |
| 52 | Cc1nc(N2Cc3ccc(OCC4CC4)cc3C(O)C2)nc(=O)n1Cc1ccc(C(F)(F)F)s1 (stereo not drawn) [compound 47] |
| 1900 | COc1ccc2c(c1)CN(c1nc(C)n(Cc3ccc(C(F)(F)F)s3)c(=O)n1)C2 [compound 48] |
| 480 | COc1ccc2c(c1)CCCN(c1nc(C)n(Cc3ccc(C(F)(F)F)s3)c(=O)n1)C2 [compound 49] |
| 410 | COc1ccc2c(c1OC)C(O)CN(c1nc(C)n(Cc3ccc(C(F)(F)F)s3)c(=O)n1)C2 (stereo not drawn) [compound 50] |
| 340 | CCOC(=O)c1cc2c(s1)CCN(c1nc(C)n(Cc3ccc(C(F)(F)F)s3)c(=O)n1)C2 [compound 51] |
| 290 | Cc1nc(N2CCc3cc(F)ccc3C2)nc(=O)n1Cc1ccc(C(F)(F)F)s1 [compound 52] |
| 18 | Cc1nc(N2Cc3ccc(OC(F)F)cc3C(O)C2)nc(=O)n1Cc1ccc(C(F)(F)F)s1 (stereo not drawn) [compound 53] |
| 42 | Cc1nc(N2Cc3cc4c(cc3C(O)C2)OCO4)nc(=O)n1Cc1ccc(C(F)(F)F)s1 (stereo not drawn) [compound 54] |
| 6.4 | Cc1nc(N2CCc3c([nH]c4cc(F)ccc34)C2)nc(=O)n1Cc1ccc(C(F)(F)F)s1 [compound 57] |
| 52 | Cc1nc(N2CCc3c([nH]c4cc(F)ccc34)C2)nc(=O)n1Cc1cnc(C(F)(F)F)s1 [compound 58] |
| 270 | Cc1nc(N2CCn3c(nc4cc(F)ccc43)C2)nc(=O)n1Cc1ccc(C(F)(F)F)s1 [compound 59] |

| Compound | IC50 [nM] |
| --- | --- |
| Cc1nc(N2CCc3cc(Cl)ncc3C2)nc(=O)n1Cc1ccc(C(F)(F)F)s1 [compound 16] | 650 |
| Cc1nc(N2CCc3nc(Cl)ccc3C2)nc(=O)n1Cc1ccc(C(F)(F)F)s1 [compound 17] | 350 |
| Cc1ccc2c(n1)CCN(c1nc(C)n(Cc3ccc(C(F)(F)F)s3)c(=O)n1)C2 [compound 30] | 3200 |
